For one data set, the target named is T1, human NPY Y5 receptor (Homo sapiens, UniProt Q15761).
T1 construct: expressed in transfected cells; membranes used
T1 sequence (Q15761 1-445): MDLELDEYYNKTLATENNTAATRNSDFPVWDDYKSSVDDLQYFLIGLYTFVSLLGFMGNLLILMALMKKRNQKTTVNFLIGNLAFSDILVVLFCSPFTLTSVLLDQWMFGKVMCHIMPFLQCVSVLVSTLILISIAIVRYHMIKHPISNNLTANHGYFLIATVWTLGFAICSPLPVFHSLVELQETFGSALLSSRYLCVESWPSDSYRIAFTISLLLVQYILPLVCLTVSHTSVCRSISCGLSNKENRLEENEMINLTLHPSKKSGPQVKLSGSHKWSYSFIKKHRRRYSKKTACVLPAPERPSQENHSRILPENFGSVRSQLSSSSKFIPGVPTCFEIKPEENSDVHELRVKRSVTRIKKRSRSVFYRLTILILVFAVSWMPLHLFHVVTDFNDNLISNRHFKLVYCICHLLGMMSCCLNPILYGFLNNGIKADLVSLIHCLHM
The data set is described as follows: Affinity for NPY Y5 receptor ([125I] peptide YY binding, CHO cell membranes). The settings on record: [125I] peptide YY 60 pM, 25° C., 2 hours. From the text: cDNA sequence encoding a human NPY Y5 receptor (WO96/16542) was cloned in a vector (pME18S, Takebe et al. Mol. Cell. Biol. 8, 8957). The obtained expression vector was transfected into CHO cells as a host by using Lipofect AMINE reagent (Trademark, Gico BRL Co., Ltd.) according to the instruction manual. The cells that stably express NPY Y5 receptor were obtained.
The membranes prepared from the CHO cells expressing NPY Y5 receptor, the compound of the present invention and 30,000 cpm [^125I] peptide YY (60 pM of final concentration: Amersham) were incubated in the assay buffer (20 mM HEPES-Hanks buffer containing 0.1% bovine serum albumin, pH 7.4) at 25° C. for 2 hours, and then the membrane was filtered from the mixture through a glassfilter (GF/C) presoaked with 1% polyethyleneimine. After washing with 50 mM Tris-HCl buffer (pH 7.4), radioactivity retained on the filters was quantified with a gamma counter. Nonspecific binding was defined as the amount of radioactivity bound to the membranes after incubation in the presence of 200 nM of peptide YY. The 50% inhibitory concentration of the test compound against the specific peptide YY binding (IC50 value) was calculated (Inui, A. et al. Endocrinology 131, 2090-2096 (1992)).

The test system of data set [1] is T2, P-gp.
T2 construct: effectively excreted through P-gp from the brain to vessels; from tissue; host or cells: brain / blood-brain barrier of living Jcl;C57BL/6J mice
Nature of the data set: Potential for drug-drug interactions through P-gp in vivo (Kp with or without cyclosporin A). The conditions noted are these: male, Jcl;C57BL/6J, mouse, brain (relative to plasma); mice, intravenous administration, with cyclosporin A (20 mg/kg), a P-gp inhibitor; read-out: KpCSA value. As to the method: (§1) Transportability of the compounds of the present invention through the blood-brain barrier (blood-brain partition coefficient; Kp) in mice (Jcl;C57BL/6J mice, ♂, 7 weeks) was defined from the difference in concentration of the compounds between in plasma and in brain after intravenous administration of the compounds (0.5 mg/2 mIAg). The brain Kp value of Compound (1-72) (KpCont.) was 1.29 showing high transportability through the blood-brain barrier.
(§2) To examine the potential for drug-drug interactions through P-gp in vivo, the Kp values of compounds of the present invention with (KpCSA) or without (KpCont.) cyclosporin A (20 mg/kg), a P-gp inhibitor, were calculated. The KpCSA value of Compound (I-72) was 1.14, and the calculated KpCSA/KpCont. ratio was 0.9.
(§3) On the other hand the potential for drug-drug interactions through P-pg of amide compound B which has similar structure of Compound (I-72) was also examined in mice. The KpCont. and KpCSA were 0.04 and 0.84, respectively.

For data set [2], the target named is T3, P-gp (Mus musculus, UniProt P21447).
T3 construct: effectively excreted through P-gp from the brain to vessels; from tissue; host or cells: brain / blood-brain barrier of living Jcl;C57BL/6J mice
Described as above. The conditions noted are these: mice, with versus without cyclosporin A (20 mg/kg). As to the method: as §1, §2, §3

Data set [3] can be described thus: Transportability through the blood-brain barrier (brain Kp) in mice. It is filed as in vivo. The conditions noted are these: male, Jcl;C57BL/6J, mouse, brain (relative to plasma), intravenous administration, without cyclosporin A, read-out: brain Kp value (KpCont.), blood-brain partition coefficient. The method, then:
as §1

pIC50: −log10 of the molar value.

Usually pIC50 stands for the negative decadic logarithm of the IC50, by convention in mol/L. For orientation: melting point means the temperature, or range, at which the solid turns liquid.

T3 sequence (P21447 whole entry): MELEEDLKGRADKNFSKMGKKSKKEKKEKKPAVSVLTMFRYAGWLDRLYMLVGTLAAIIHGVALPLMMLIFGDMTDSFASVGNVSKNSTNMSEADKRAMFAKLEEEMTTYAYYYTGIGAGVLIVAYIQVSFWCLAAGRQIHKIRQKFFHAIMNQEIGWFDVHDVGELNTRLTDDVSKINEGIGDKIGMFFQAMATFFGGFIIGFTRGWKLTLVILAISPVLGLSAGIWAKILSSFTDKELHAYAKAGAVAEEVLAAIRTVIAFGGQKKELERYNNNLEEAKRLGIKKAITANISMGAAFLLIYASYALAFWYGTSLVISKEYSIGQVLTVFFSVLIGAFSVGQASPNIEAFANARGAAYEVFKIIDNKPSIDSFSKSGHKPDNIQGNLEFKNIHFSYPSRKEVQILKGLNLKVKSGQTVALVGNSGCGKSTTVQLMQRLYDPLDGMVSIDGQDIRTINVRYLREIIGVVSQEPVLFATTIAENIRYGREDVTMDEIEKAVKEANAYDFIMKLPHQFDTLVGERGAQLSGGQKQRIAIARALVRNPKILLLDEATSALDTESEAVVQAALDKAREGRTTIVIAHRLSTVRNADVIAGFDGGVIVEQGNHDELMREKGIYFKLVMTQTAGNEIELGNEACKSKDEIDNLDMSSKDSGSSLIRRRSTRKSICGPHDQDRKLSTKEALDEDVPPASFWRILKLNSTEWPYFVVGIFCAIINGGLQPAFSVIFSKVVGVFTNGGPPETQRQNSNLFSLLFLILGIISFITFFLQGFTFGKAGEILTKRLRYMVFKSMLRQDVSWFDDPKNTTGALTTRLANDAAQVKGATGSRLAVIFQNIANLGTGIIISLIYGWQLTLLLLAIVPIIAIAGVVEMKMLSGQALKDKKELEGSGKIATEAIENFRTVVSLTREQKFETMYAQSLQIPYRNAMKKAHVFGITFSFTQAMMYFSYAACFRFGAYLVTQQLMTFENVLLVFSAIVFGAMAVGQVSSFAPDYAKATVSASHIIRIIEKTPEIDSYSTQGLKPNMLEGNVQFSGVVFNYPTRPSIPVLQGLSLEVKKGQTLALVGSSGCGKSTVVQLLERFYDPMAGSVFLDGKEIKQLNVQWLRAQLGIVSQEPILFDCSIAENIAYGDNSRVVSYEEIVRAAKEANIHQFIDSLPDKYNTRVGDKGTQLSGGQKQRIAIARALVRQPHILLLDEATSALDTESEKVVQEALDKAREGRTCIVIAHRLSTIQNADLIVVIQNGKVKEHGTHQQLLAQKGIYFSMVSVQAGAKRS

For the compound `CC(C)(C)S(=O)(=O)NC[C@H]1CC[C@H](Nc2ccc3ccccc3n2)CC1` [Ij-59], the negative logarithm of the IC50 (pIC50) at human NPY Y5 receptor was 8.60. With `C[C@@H]1CN(c2ccc(NC(=O)[C@H]3CC[C@H](NS(=O)(=O)C(C)(C)C)CC3)cc2)C[C@H](C)O1` [compound B, reference compound], the figures for the Kp (with P-gp [1]; in data set [3]) were 0.84 and 0.04, respectively. Also, the KpCSA/KpCont. ratio on P-gp [2] was determined as 20.5.

Regarding `CC1CC(C)CN(c2cccc(NC[C@H]3CC[C@H](NS(=O)(=O)C(C)(C)C)CC3)c2)C1` (stereo partly drawn) [Ii-1], the negative-log IC50 (pIC50) at human NPY Y5 receptor is 10.00.

In the case of `CC(C)S(=O)(=O)NC[C@H]1CC[C@H](Nc2ccc(OC3CCCC3)nn2)CC1` [Ij-52], the pIC50 at human NPY Y5 receptor is 9.57. Turning to `C[C@@H]1CN(c2ccc(NC[C@H]3CC[C@H](NS(=O)(=O)C(C)(C)C)CC3)cc2)C[C@H](C)O1` [Compound I-72], the melting point was in the range of 147 to 149 °C. The Kp in the data set with P-gp [1] is 1.14. For the same compound, the KpCSA/KpCont. ratio on P-gp [2] worked out at 0.9. In data set [3], the Kp was 1.29. Turning to `CCS(=O)(=O)N[C@H]1CC[C@H](CNc2ccc(S(=O)(=O)c3ccc(F)cc3)cc2)CC1` [Ii-34], on human NPY Y5 receptor, the pIC50 is 7.96. The compound `CC(C)S(=O)(=O)NC[C@H]1CC[C@H](Nc2ccc(C(F)(F)F)cn2)CC1` [Ij-1] had a pIC50 on human NPY Y5 receptor of 9.15. Against the preceding compound, the pIC50 is 1.19 log units higher.

Compound `CCCn1c(=O)oc2cc(NC[C@H]3CC[C@H](NS(=O)(=O)CC)CC3)ccc21` [Ii-16] showed a negative-log IC50 (pIC50) at human NPY Y5 receptor of 8.60. Compound `CCS(=O)(=O)N[C@H]1CC[C@H](CNc2cc(-c3ccccc3)on2)CC1` [Ii-44] had a pIC50 on human NPY Y5 receptor of 8.47.

Regarding `CC(C)(C)S(=O)(=O)NC[C@H]1CC[C@H](Nc2nc3ccc(C(F)(F)F)cc3s2)CC1` [Ij-66], the negative logarithm of the IC50 (pIC50) at human NPY Y5 receptor was 9.41.
